Measurements as given in PMC5815658 (Journal of Medicinal Chemistry, 2017).
In brackets after ≈: the same amount, converted by molar mass. Entries after “also recorded” stand apart in the source; their conditions may differ. Read-outs that look alike come from different tables or passages of the source. Peptide text beside a SMILES is read from it. * marks the point of attachment. Cbz = O=C(OCc1ccccc1)*

Columns and labels:
[1] = biological target: T1, pirin protein in SK-OV-3 human ovarian cancer cells (Homo sapiens, UniProt O00625); experiment: Pirin depletion in SK-OV-3 cells (immunoblot / capillary electrophoresis immunoassay); format: cell-based
T1 construct: endogenous in cells; host or cells: SK-OV-3
T1 sequence (O00625 1-290): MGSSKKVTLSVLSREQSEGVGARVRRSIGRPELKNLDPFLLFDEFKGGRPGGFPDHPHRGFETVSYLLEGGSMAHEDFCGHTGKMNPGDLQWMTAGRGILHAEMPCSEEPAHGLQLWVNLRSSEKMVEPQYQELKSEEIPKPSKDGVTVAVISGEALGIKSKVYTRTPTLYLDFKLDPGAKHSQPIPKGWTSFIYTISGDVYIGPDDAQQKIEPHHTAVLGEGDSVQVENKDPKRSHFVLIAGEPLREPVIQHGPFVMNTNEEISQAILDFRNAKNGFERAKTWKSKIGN
Experimental: (§1) in vivo in athymic mice to increase its tumorigenicity and reliability as a xenograft, and used within 10 passages of banked stocks.
(§2) Prior to use, the cells were analyzed by short tandem repeat (STR) profiling. Polymorphic STR loci were amplified using a polymerase chain reaction (PCR) primer set. The PCR product (each locus being labelled with a different fluorophore) was analyzed simultaneously with size standards using automated fluorescent detection. The number of repeats at 10 different loci (as recommended by the American Type Culture Collection, ATCC) was used to define the STR profile and this was cross-referenced with online databases to confirm authenticity. […]
(§3) the ATCC reference line (LGC Promochem, UK). […]
(§4) nested PCR protocol (Venor GeM kit, Minerva Biolabs, Germany). Cells were grown in DMEM/10 % FCS, 2 mM glutamine and nonessential amino acids in 5 % CO2.
(§5) SK-OV-3 cells were treated as for each experimental condition. Cells were harvested and lysed by scraping in urea lysis buffer (20 mM HEPES pH 8.0, 9 M urea, 1 mM sodium orthovanadate, 2.5 mM sodium pyrophosphate, 1 mM β-glycerophosphate). […]
(§6) of samples was determined using a bicinchoninic acid (BCA) protein assay kit (Thermo Fisher Scientific). Western blotting was carried out as previously described.10 Pirin and GAPDH antibodies were obtained from Abcam (ab157212) and Merck […]
(§7) Samples were treated, harvested and lysed as described above. A total of 5 μL of 0.2 mg/mL protein was loaded into plates and capillary western analysis was carried out according to the manufacturer’s instructions (ProteinSimple WES). The data was analyzed with the Compass software (ProteinSimple).
(§8) Sigma-Aldrich and Cell Signaling Technology, respectively.
(§9) 10 Sharp SY, Boxall K, Rowlands M, Prodromou C, Roe SM, Maloney A, Powers M, Clarke PA, Box G, Sanderson S, Patterson L, Matthews TP, Cheung KM, Ball K, Hayes A, Raynaud F, Marais R, Pearl L, Eccles S, Aherne W, McDonald E, Workman P. In vitro biological characterization of a novel, synthetic diaryl pyrazole resorcinol class of heat shock protein 90 inhibitors.

[2] = biological target: T2, CRBN-DDB1 complex (Homo sapiens, UniProt Q96SW2); experiment: CRBN/DDB1 fluorescence polarization competition assay; format: binding; conditions: for Ki: calculated from geometric mean CRBN-DDB1 IC50 and FP-probe KD
T2 construct: His6-ZZ-HRV3C (N); made in house; host or cells: Sf9 insect cells (baculovirus co-infection)
Experimental: CRBN/DDB1 Fluorescence Polarization Assay […]
Unless otherwise stated, the aqueous assay buffer contained 0.02 M HEPES((4-(2-hydroxyethyl)-1-piperazineethanesulfonic acid)) pH 8.0, 0.15 M NaCl, 0.5 mM TCEP ((tris(2-carboxyethyl)phosphine)), 0.05% Tween 20. The assay was conducted using 384 well black plates (ProxiPlate F Plus, Perkin-Elmer, Massachusetts, USA).
Plate Reader. […] Fluorescence […]
polarization was measured in units of millipolarization (mP) and are background corrected. Data were plotted and analyzed using […]
All experiments were performed in triplicate unless otherwise stated. Values are quoted as the geometric […]
Each graph is a representative example of a single biological repeat unless otherwise stated.
CRBN/DDB1 Protein Expression & Purification
Protein expression and purification methods adapted from Lopez-Girona et al.5 Full length human CRBN (accession number NM016302) was amplified by PCR & inserted downstream of the polyhedrin promoter of a pFBDM expression vector which had been modified to introduce a N-terminal His6-ZZ-HRV3C tag. Full length human DDB1 (accession number NM001923) was amplified by PCR with primers which introduced a C-terminal StrepTag and inserted downstream of the p10 promoter of a separate pFBDM expression vector. Baculoviruses were generated according to Bac-to-Bac protocols (Invitrogen) and used to co-infect Sf9 cells grown @ 27 °C in shaker flasks using Insect-XPRESS media (Lonza). Cells were harvested 48 hours post infection and frozen. For purification, pellets were thawed & resuspended in 5 volumes of Histrap buffer A (see below) and lysed […]
Superdex 200 (HiLoad 26/600), ResourceQ (6 mL) and finally a second Superdex 200 (HiLoad 26/600) column. All columns were from GE Healthcare and all purification steps were performed @ 4 °C. HisTrap buffer A: 50mM Tris (2-Amino-2-(hydroxymethyl)propane-1,3-diol), 500mM NaCl, 0.5mM TCEP ((tris(2-carboxyethyl)phosphine), 5% glycerol, pH 8.0. HisTrap Buffer B: + 250 mM imidazole. Superdex 200 buffer: 50mM Tris, 200mM NaCl, 0.5mM TCEP, 5% glycerol, pH 8.0. Resource Q buffer A: 50mM Tris, 0.5mM TCEP, 5% Glycerol, pH8.0. Resource Q buffer B + 1M NaCl.
California, USA) to prepare CRBN/DDB1 concentrations from 0.1 to 500 nM in 10 µL final assay volume containing 5 nM FP- […]
point prior to analysis. The KD was calculated using non-linear regression and a one-site specific binding model.
Analysis of competition assay FP-probe bound fraction […]
fb=probe bound fraction, KD=probe dissociation constant, L0=probe concentration, R0=protein concentration, Ki=ligand […]
CRBN/DDB1 Competition Assay
Compounds as solutions in DMSO were dispensed using an ECHO 550 Liquid Handler (Labcyte Inc).
Tracer controls (5 nM FP-probe S18 assay buffer only) and bound tracer controls (5 nM and 80 nM CRBN/DDB1) were included on each assay plate . Plates were incubated overnight at 4 °C before warming to room temperature and fluorescence polarization measured using an EnVision plate reader (Perkin -Elmer, Massachusetts, USA). IC 50 values […]
Table S2. CRBN/DDB1 Control Compounds

[3] = biological target: T3, pirin (Homo sapiens, UniProt O00625); experiment: Pirin SPR (surface plasmon resonance) binding; conditions: for Measured Rmax/Theoretical Rmax: SPR
T3 sequence (O00625 1-290): T1 sequence (O00625 1-290)

[4] = PDP aqueous stability protocol; conditions: for half-life at 100 µM: phosphate buffer (PBS)
[5] = Kinetic solubility determination by RP-HPLC; conditions: PBS, pH 7.4, aqueous buffer, kinetic from dmso stock
[6] = LogD7.4 determination by RP-HPLC; conditions: pH 7.4
[7] = biological target: T3, pirin; experiment: Intracellular competition: rescue of PDP 16 pirin depletion by pirin ligands in SK-OV-3 cells; format: cell-based; set-up: endogenous in cells; host or cells: SK-OV-3
Experimental: as §1, §2, §3, §4, §5, §6, §7, §8, §9

[8] = tested on: proteasome; experiment: Rescue of PDP 16 pirin depletion by proteasome inhibitor in SK-OV-3 cells; format: cell-based, human; conditions: 500 nM, 4 h pretreatment, then PDP 16 24 h
Experimental: as §1, §2, §3, §4, §5
of samples was determined using a bicinchoninic acid (BCA) protein assay kit (Thermo Fisher Scientific). […]
Samples were treated, harvested and lysed as described above. […] The data was analyzed with the Compass software (ProteinSimple). […]

[9] = CRBN/DDB1 FP IC50, single repeat N=2, best-fit value, variable slope four parameters
[10] = best-fit value, variable slope four parameters, read-out: CRBN/DDB1 FP IC50, single repeat N=1
[11] = best-fit value, variable slope four parameters, read-out: CRBN/DDB1 FP IC50, single repeat N=3
[12] = displacement of thalidomide derived fluorescent probe, geometric mean n = 3, read-out: CRBN/DDB1 FP IC50
[13] = Pirin SPR KD, equilibrium analysis, one site specific binding model, geometric mean n = 3
[14] = Pirin SPR KD, representative single repeat, best-fit value, one site specific binding
[15] = Pirin SPR pKD, mean of 3 values (unrounded), column statistics
[16] = Pirin SPR pKD±SEM, n = 3 independent biological repeats
[17] = 4 h pretreatment, then PDP 16 for 2 h, SK-OV-3, Figure 4

SMILES	IC50 [2, 9]	IC50 [2, 10]	IC50 [2, 11]	Ki [2]	IC50 [2, 12]	Kd [3, 13]	Kd [3, 14]	Kd [3, 15]	Kd [3, 16]	Measured Rmax/Theoretical Rmax [3]	solubility kinetic at 120 min [5]	chromatographic logD [6]	further results
Cc1ccc(NC(=O)c2ccc3c(c2)OCCO3)cc1NC(=O)c1ccc2nc(OCCCC(=O)NCCOCCNC(=O)COc3cccc4c3C(=O)N(C3CCC(=O)NC3=O)C4=O)ccc2c1 (centres unmarked) [PDP 3, N-(5-(2,3-Dihydrobenzo[b][1,4]dioxine-6-carboxamido)-2-methylphenyl)-2-(4-((2-(2-(2-((2-(2,6-dioxopiperidin-3-yl)-1,3-dioxoisoindolin-4-yl)oxy)acetamido)ethoxy)ethyl)amino)-4-oxobutoxy)quinoline-6-carboxamide]	496 nM	1510 nM	811 nM	220 nM	850 nM	110 nM	111 nM	108 nM	107 nM	0.44	1 µM (≈ 0.942 µg/mL)	2.2	Effects on SK-OV-3 cells ([1]; >1 μM, >48 h, data not shown): no measurable effects on the cancer cells; IC50 ([2]; column statistics, read-out: CRBN/DDB1 FP pIC50, mean of 3 values (unrounded) (converted)): 847 nM; half-life at 100 µM ([4]; pH 7.4): 432 min
Cc1ccc(NC(=O)c2ccc3c(c2)OCCO3)cc1NC(=O)c1ccc2nc(OCCN3CCCC3)ccc2c1 [chemical probe 1]													Stability in pH 7.4 phosphate buffer ([4]; 37 °C, pH 7.4 phosphate buffer): no instability
O=C1CCC(N2C(=O)c3cccc(OCCOCCOCCN4CCN(Cc5ccc6cc(C(=O)Nc7cc(NC(=O)c8cccc9c8OCCO9)ccc7Cl)ccc6n5)CC4)c3C2=O)C(=O)N1 (centres unmarked) [PDP 21, N-(2-Chloro-5-(2,3-dihydrobenzo[b][1,4]dioxine-5-carboxamido)phenyl)-2-((4-(2-(2-(2-((2-(2,6-dioxopiperidin-3-yl)-1,3-dioxoisoindolin-4-yl)oxy)ethoxy)ethoxy)ethyl)piperazin-1-yl)methyl)quinoline-6-carboxamide]	277 nM	590 nM	444 nM	98 nM	420 nM	> 1300 nM			> 1260 nM		2 µM (≈ 1.89 µg/mL)	2.9	Pirin depletion by negative control ([1]; SK-OV-3 cells, 24 h treatment, Western blot, Figure S19): does not deplete pirin protein; also recorded: no pirin depletion; half-life at 100 µM ([4]; pH 7.4, Half-life (aqueous stability), 37 °C, pH 7.4 phosphate buffer): 168 min
CCN1CCN(Cc2ccc3cc(C(=O)Nc4cc(NC(=O)c5ccc6c(c5)OCCO6)ccc4Cl)ccc3n2)CC1 [chlorobisamide 22, N-(2-Chloro-5-(2,3-dihydrobenzo[b][1,4]dioxine-6-carboxamido)phenyl)-2-((4-ethylpiperazin-1-yl)methyl)quinoline-6-carboxamide]							19.9 nM	20.8 nM	20.9 nM	0.29			Concentration giving complete rescue of pirin expression [7, 17]: 1 µM; Rescue of pirin expression following treatment with PDP 16 [7, 17]: concentration-dependent rescue of pirin expression; Competition of PDP 16 at 6 h exposure ([7]; concentration > 1 μM, data not shown): unsuccessful
CC(C)C[C@@H](C=O)NC(=O)[C@H](CC(C)C)NC(=O)[C@H](CC(C)C)NC(=O)OCc1ccccc1 [MG132] (Cbz-Leu-Leu-Leu-aldehyde)													Rescue of pirin degradation by MG132 preincubation [8]: rescue
